In patent publication US9744173B2, “2-amino 6-methyl-4,4a,5,6-tetrahydropyrano[3,4-d][1,3]thiazin-8a(8H)-yl-1,3-thiazol-4-yl amides” (Pfizer Inc., priority 2014, dated 2017):

Columns and labels:
[1] = test system: sAPPβ in H4 human neuroglioma cells over-expressing the wild-type human APP695; test: sAPPβ Whole-Cell Assay (WCA); assay type: cell-based; conditions: 18 h
Procedure: sAPPβ Whole-Cell Assay (WCA): sAPPβ, the primary cleavage product of BACE1, was determined in H4 human neuroglioma cells over-expressing the wild-type human APP695. […] The colorimetric reaction was read by an EnVision (PerkinElmer) plate-reader.

human BACE2 = human BACE2 (Homo sapiens (Human), UniProt Q9Y5Z0); test: BACE2 binding assay (SPA), BACE2/BACE1 Binding Ratio; conditions: ratio of IC50 from respective binding assays, pH 6.0
Procedure: BACE2/BACE1 Binding Ratio: The BACE1 and BACE2 binding assays measured beta-site amyloid precursor protein-cleaving enzyme (BACE) binding as a decrease in the counts of radioligand bound in a scintillation proximity assay (SPA). […] Full length human BACE1 or BACE2 over-expressed in HEK cells was prepared by Pfizer scientists. Frozen stock cell paste was reacted in 50 mM sodium acetate buffer (pH=6.0) containing 3H-(4aR,6R,8aS)-8a-(2,4-difluorophenyl)-6-(1-methyl-1H-pyrazol-4-yl)-4,4a,5,6,8,8a-hexahydropyrano[3,4-d][1,3]thiazin-2-amine ligand, SPA bead and 60 μM to 600 pM of test compound in an assay volume of 27 uL. The compound plate also contained positive (BACE inhibitor) and negative (DMSO) control wells. The binding was carried out at room temperature for 30 minutes and then the plates were read on a TriLux Microbeta reader to determine the number of counts bound.

GSH Incubation Assay = assay type: in vitro ADME; conditions: following incubations with glutathione
Procedure: GSH Incubation Assay: The test compound (10 μM in DMSO) was incubated with L-glutathione (50 mM, prepared in 100 mM postassium phosphate buffer) at 37° C. for 4 hours and then analyzed by HPLC-UV/MS/MS without work-up. Thermo Accela HPLC and Velos Pro Orbitrap Elite (S/N: SN05189B) operating in positive mode with a source voltage of 3.5 kV with data dependant processing. […] Product assignments were based on high resolution mass spectrometer fragmentation.

Chain of human BACE2 (Q9Y5Z0 63-518): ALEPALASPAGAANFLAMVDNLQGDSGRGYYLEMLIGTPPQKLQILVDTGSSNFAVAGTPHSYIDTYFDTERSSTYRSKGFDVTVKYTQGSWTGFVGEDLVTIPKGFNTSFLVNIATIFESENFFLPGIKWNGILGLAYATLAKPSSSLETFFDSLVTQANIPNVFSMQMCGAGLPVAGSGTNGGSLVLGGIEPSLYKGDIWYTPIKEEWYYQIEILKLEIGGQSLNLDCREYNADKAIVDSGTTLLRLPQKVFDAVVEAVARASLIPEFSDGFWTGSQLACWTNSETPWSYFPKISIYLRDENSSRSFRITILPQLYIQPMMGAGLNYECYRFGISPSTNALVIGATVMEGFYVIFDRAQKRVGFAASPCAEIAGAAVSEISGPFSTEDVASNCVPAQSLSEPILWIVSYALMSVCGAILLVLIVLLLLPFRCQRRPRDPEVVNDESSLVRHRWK

SMILES | IC50 [1] | BACE2/BACE1 Binding Ratio (human BACE2) | formation of GSH adducts (GSH Incubation Assay)
Cc1cc(OC(F)F)cnc1C(=O)Nc1csc([C@]23CO[C@@H](C)C[C@H]2CSC(N)=N3)n1 [Example 45, N-{2-[(4aR,6S,8aR)-2-amino-6-methyl-4,4a,5,6-tetrahydropyrano[3,4-d][1,3]thiazin-8a(8H)-yl]-1,3-thiazol-4-yl}-5-(difluoromethoxy)-3-methylpyridine-2-carboxamide] | – | – | not detected
C[C@H]1C[C@H]2CSC(N)=N[C@@]2(c2nc(NC(=O)c3ccc(OC(F)F)cn3)cs2)CO1 [Example 1, N-{2-[(4aR,6S,8aR)-2-amino-6-methyl-4,4a,5,6-tetrahydropyrano[3,4-d][1,3]thiazin-8a(8H)-yl]-1,3-thiazol-4-yl}-5-(difluoromethoxy)pyridine-2-carboxamide] | – | – | not detected
C[C@H]1C[C@H]2CSC(N)=N[C@@]2(c2nc(NC(=O)c3ccc(Cl)cn3)cs2)CO1 [Example 7, N-{2-[(4aR,6S,8aR)-2-amino-6-methyl-4,4a,5,6-tetrahydropyrano[3,4-d][1,3]thiazin-8a(8H)-yl]-1,3-thiazol-4-yl}-5-chloropyridine-2-carboxamide] | – | – | not detected
C[C@H]1C[C@H]2CSC(N)=N[C@@]2(c2nc(NC(=O)c3cnc(OC(F)F)cn3)cs2)CO1 [Example 2, N-{2-[(4aR,6S,8aR)-2-amino-6-methyl-4,4a,5,6-tetrahydropyrano[3,4-d][1,3]thiazin-8a(8H)-yl]-1,3-thiazol-4-yl}-5-(difluoromethoxy)pyrazine-2-carboxamide] | – | – | not detected

The remaining lines, values ahead:

IC50 [1] | BACE2/BACE1 Binding Ratio (human BACE2) | formation of GSH adducts (GSH Incubation Assay) | SMILES
< 1 nM | 1.0 | – | NC1=N[C@@]2(c3cc(NC(=O)c4ccc(OC(F)F)cn4)ccc3F)CO[C@@H](C(F)(F)F)C[C@H]2CS1 [Comparator 6]
< 1 nM | 1.0 | – | C[C@H]1C[C@H]2CSC(N)=N[C@@]2(c2cc(NC(=O)c3ccc(Cl)cn3)ccc2F)CO1 [Comparator 7]
